From ChEMBL document CHEMBL1154469, “Design and synthesis of bisubstrate inhibitors of type 1 17beta-hydroxysteroid dehydrogenase: overview and perspectives” (Eur J Med Chem, 2008)

Columns and labels:
[1] = molecular target: T1, 17-beta-hydroxysteroid dehydrogenase type 1 (Homo sapiens, UniProt P14061); assay: Inhibition of 17beta-HSD1 expressed in HEK 293 cells assessed as conversion of [14C]estrone to [14C]estradiol using NADPH; format: cell-based, HEK293
T1 sequence (P14061 whole entry): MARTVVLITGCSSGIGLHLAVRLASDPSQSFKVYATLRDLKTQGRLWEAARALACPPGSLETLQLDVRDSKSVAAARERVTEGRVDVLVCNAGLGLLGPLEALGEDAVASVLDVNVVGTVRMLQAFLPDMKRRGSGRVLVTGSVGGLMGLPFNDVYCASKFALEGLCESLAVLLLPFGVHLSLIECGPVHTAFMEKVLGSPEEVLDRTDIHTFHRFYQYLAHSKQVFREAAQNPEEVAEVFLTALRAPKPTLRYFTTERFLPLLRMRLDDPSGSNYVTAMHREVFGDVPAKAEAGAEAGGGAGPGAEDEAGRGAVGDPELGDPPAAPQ

[2] = molecular target: T2, 17-beta-hydroxysteroid dehydrogenase type 1 (Homo sapiens) (UniProt P14061); assay: Inhibition of 17beta-HSD1 expressed in HEK 293 cells assessed as conversion of [14C]estrone to [14C]estradiol at 0.1 uM using NADH; format: cell-based; details: HEK293
T2 sequence (whole entry): T1 sequence (P14061 whole entry)

| Structure (SMILES) | IC50 [1] [nM] | inhibition [2] [%] |
| --- | --- | --- |
| C[C@]12CC[C@@H]3c4ccc(O)cc4CC[C@H]3[C@@H]1C[C@H](CCCCCCCCC(=O)OC[C@H]1O[C@@H](n3cnc4c(N)ncnc43)[C@H](O)[C@@H]1O)[C@@H]2O | 8 |  |
| C[C@]12CC[C@@H]3c4ccc(O)cc4CC[C@H]3[C@@H]1C[C@H](CCCCCCCCCCCCCc1cccc(CC(=O)O)c1)[C@@H]2O |  | 49 |
| C[C@]12CC[C@@H]3c4ccc(O)cc4CC[C@H]3[C@@H]1C[C@H](CCCCCCCCCCCCCc1cc(N)cc(CC(=O)O)c1)[C@@H]2O |  | 27 |
